Reference: patent US9994594B2, “Inhibitors of arginase and their therapeutic applications” (MARS, INCORPORATED, priority 2010, dated 2018)
Structures can show the parent of a compound that is named as a salt. Where two headings read alike, the source gives them in different places.

Legend:
arginase II (ARG II) = biological target: T1, arginase II (ARG II) (Homo sapiens, UniProt P78540); assay: Inhibition of arginase II, spectrophotometric urea assay at 530 nm; format: biochemical
T1 sequence (P78540 23-354): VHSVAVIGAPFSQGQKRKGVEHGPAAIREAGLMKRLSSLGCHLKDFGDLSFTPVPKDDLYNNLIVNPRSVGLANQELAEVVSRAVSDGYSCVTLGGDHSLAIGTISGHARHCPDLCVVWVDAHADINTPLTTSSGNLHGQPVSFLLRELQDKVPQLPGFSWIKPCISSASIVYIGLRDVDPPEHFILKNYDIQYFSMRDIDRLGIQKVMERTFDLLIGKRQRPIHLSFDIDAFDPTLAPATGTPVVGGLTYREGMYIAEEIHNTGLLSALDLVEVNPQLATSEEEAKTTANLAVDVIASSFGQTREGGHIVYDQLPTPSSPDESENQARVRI
In short: (§1)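 IC50 was derived by regression of OD530 normalized to uninhibited-enzyme controls against log concentration. Urea from 60-min, 37 °C turnover of L-arginine with manganese sulfate was detected after acid o-phthaldialdehyde/primaquine quench and 10 min colour development. Arginase I and II came from 100 ng/ml stocks in pH 7.4 phosphate with ovalbumin.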

human arginase I (ARG I) = biological target: T2, human arginase I (ARG I) (Homo sapiens, UniProt P05089); assay: Inhibition of arginase I, spectrophotometric urea assay at 530 nm; format: biochemical; conditions: read-out: Potency (ARG I)
T2 sequence (P05089 1-322): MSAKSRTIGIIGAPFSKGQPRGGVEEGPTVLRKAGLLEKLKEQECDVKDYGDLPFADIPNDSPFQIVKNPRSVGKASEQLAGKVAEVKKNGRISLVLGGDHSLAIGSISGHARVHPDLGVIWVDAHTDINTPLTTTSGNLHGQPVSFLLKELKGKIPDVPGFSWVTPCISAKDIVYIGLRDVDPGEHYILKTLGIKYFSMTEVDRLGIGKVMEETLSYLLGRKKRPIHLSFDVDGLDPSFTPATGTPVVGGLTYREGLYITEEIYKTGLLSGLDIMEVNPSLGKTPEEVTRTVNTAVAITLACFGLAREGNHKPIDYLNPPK
In short: as §1

[1] = Formula I compounds, Table 2, read-out: Potency (ARG II)
[2] = Formula II compounds, Table 2-A, read-out: Potency (ARG)
[3] = Formula II compounds, Table 2-A

| Compound | IC50 (arginase II (ARG II); [1]) | IC50 (human arginase I (ARG I); Formula I compounds, Table 2) | IC50 (arginase II (ARG II); [2]) | IC50 (human arginase I (ARG I); [3]) |
| --- | --- | --- | --- | --- |
| COc1ccc(CNCCC(N)(CCCCB(O)O)C(=O)O)cc1 (stereo not drawn) [compound 69, 2-amino-6-borono-2-(2-(4-methoxybenzylamino)ethyl)hexanoic acid dihydrochloride] | 0.1 to 250 nM | 0.1 to 250 nM |  |  |
| CC(C)CC(CO)NCC(N)(CCCCB(O)O)C(=O)O [compound 88, 2-amino-6-borono-2-(((S)-1-hydroxy-4-methylpentan-2-ylamino)methyl)hexanoic acid dihydrochloride] | 1000 to 2000 nM | 2000 to 5000 nM |  |  |
| NC(CCCCB(O)O)(CCNCCCc1cc(C(F)(F)F)ccc1Cl)C(=O)O (stereo not drawn) [compound 64, 2-amino-6-borono-2-(2-(3-(2-chloro-5-(trifluoromethyl)phenyl)propylamino)ethyl)hexanoic acid dihydrochloride] | 0.1 to 250 nM | 0.1 to 250 nM |  |  |
| N[C@H]1CC[C@H]([C@](N)(CCCCB(O)O)C(=O)O)C1 [16-A, (R)-2-amino-2-((1S,3S)-3-aminocyclopentyl)-6-boronohexanoic acid dihydrochloride] |  |  | 0.1 to 250 nM | 0.1 to 250 nM |
| CC(C)Oc1ccc(CN(C)CCC(N)(CCCCB(O)O)C(=O)O)cc1 (stereo not drawn) [compound 74, 2-amino-6-borono-2-(2-((4-isopropoxybenzyl)(methyl)amino)ethyl)hexanoic acid dihydrochloride] | > 5000 nM | 2000 to 5000 nM |  |  |
| C=CCC(N)(CCCCB(O)O)C(=O)O (stereo not drawn) [compound 14, 2-allyl-2-amino-6-boronohexanoic acid] | > 5000 nM | 43 nM |  |  |
| CC[C@](N)(CCCCB(O)O)C(=O)O [compound 15, (S)-2-amino-6-borono-2-ethylhexanoic acid hydrochloride] | 2000 to 5000 nM | 2000 to 5000 nM |  |  |
| CCCNCC(N)(CCCCB(O)O)C(=O)O (stereo not drawn) [compound 83, 2-amino-6-borono-2-((propylamino)methyl)hexanoic acid dihydrochloride] | 2000 to 5000 nM | 2000 to 5000 nM |  |  |
| NC(CCCCB(O)O)(C(=O)O)C1CCN(C(=S)NCc2ccc(Cl)cc2)CC1 (stereo not drawn) [Example 43-A, 2-amino-6-borono-2-(1-(4-chlorobenzylcarbamothioyl)piperidin-4-yl)hexanoic acid] |  |  | 1000 to 2000 nM | 251 to 1000 nM |
| NC(CCCCB(O)O)(C(=O)O)C1CCN(CCCc2ccc(Cl)cc2Cl)CC1 (stereo not drawn) [Example 66-A, 2-amino-6-borono-2-(1-(3-(2,4-dichlorophenyl)propyl)piperidin-4-yl)hexanoic acid dihydrochloride] |  |  | 0.1 to 250 nM | 0.1 to 250 nM |
| NC(CCCCB(O)O)(CCN1CCc2sccc2C1)C(=O)O (stereo not drawn) [compound 29, 2-amino-6-borono-2-(2-(6,7-dihydrothieno[3,2-c]pyridin-5(4H)-yl)ethyl)hexanoic acid dihydrochloride] | 1000 to 2000 nM | 251 to 1000 nM |  |  |
| NC(CCCCB(O)O)(CCNCCCc1ccc(Cl)cc1Cl)C(=O)O (stereo not drawn) [compound 66, 2-amino-6-borono-2-(2-(3-(2,4-dichlorophenyl)propylamino)ethyl)hexanoic acid dihydrochloride] | 0.1 to 250 nM | 0.1 to 250 nM |  |  |
| CCCCNCC(N)(CCCCB(O)O)C(=O)O (stereo not drawn) [compound 86, 2-amino-6-borono-2-((butylamino)methyl)hexanoic acid dihydrochloride] | 2000 to 5000 nM | 2000 to 5000 nM |  |  |
| CNC(CCCCB(O)O)(CCCN1CCCCC1)C(=O)O (stereo not drawn) [compound 148, 6-borono-2-(methylamino)-2-(3-(piperidin-1-yl)propyl)hexanoic acid dihydrochloride] | 0.1 to 250 nM | 0.1 to 250 nM |  |  |
| NC(CCCCB(O)O)(C(=O)O)C1CCN(CCc2ccc(Cl)cc2Cl)CC1 (stereo not drawn) [Example 47-A, 2-amino-6-borono-2-(1-(2,4-dichlorophenethyl)piperidin-4-yl)hexanoic acid] |  |  | 251 to 1000 nM | 0.1 to 250 nM |
| COc1ccc(CN(C)CCC(N)(CCCCB(O)O)C(=O)O)cc1 (stereo not drawn) [compound 27, 2-amino-6-borono-2-(2-((4-methoxybenzyl)(methyl)amino)ethyl)hexanoic acid dihydrochloride] | 1000 to 2000 nM | 1000 to 2000 nM |  |  |
| CCN1Cc2ccccc2CC1CCC(N)(CCCCB(O)O)C(=O)O (stereo not drawn) [compound 130, 2-amino-6-borono-2-(2-(2-ethyl-1,2,3,4-tetrahydroisoquinolin-3-yl)ethyl)hexanoic acid dihydrochloride] | 251 to 1000 nM | 0.1 to 250 nM |  |  |

| Compound | IC50 (arginase II (ARG II); [1]) | IC50 (human arginase I (ARG I); Formula I compounds, Table 2) | IC50 (arginase II (ARG II); [2]) | IC50 (human arginase I (ARG I); [3]) |
| --- | --- | --- | --- | --- |
| NC(CCCCB(O)O)(C(=O)O)C(O)c1cccnc1 (stereo not drawn) [compound 112, 2-amino-6-borono-2-(hydroxy(pyridin-3-yl)methyl)hexanoic acid dihydrochloride] | 2000 to 5000 nM | 2000 to 5000 nM |  |  |
| NC(CCCCB(O)O)(C(=O)O)[C@@H]1CCN(Cc2ccccc2)C1 (stereo partly drawn) [Example 67-A, 2-amino-2-((R)-1-benzylpyrrolidin-3-yl)-6-boronohexanoic acid dihydrochloride] |  |  | 251 to 1000 nM | 251 to 1000 nM |
| NC(CCCCB(O)O)(C(=O)O)C1CCN(CCCc2cc(F)cc(Cl)c2)CC1 (stereo not drawn) [Example 50-A, 2-amino-6-borono-2-(1-(3-(3-chloro-5-fluorophenyl)propyl)piperidin-4-yl)hexanoic acid] |  |  | 251 to 1000 nM | 0.1 to 250 nM |
| CC(=O)N1CCC(C(N)(CCCCB(O)O)C(=O)O)CC1 (stereo not drawn) [27-A, 2-amino-6-borono-2-[1-acetylpiperidin-4-yl]hexanoic acid hydrochloride] |  |  | 2000 to 5000 nM | 2000 to 5000 nM |
| NC(CCCCB(O)O)(C(=O)O)[C@H]1C[C@@H](NCc2ccc(-c3ccccc3)cc2)C1 (stereo partly drawn) [Example 77-A, cis-2-amino-2-(3-(biphenyl-4-ylmethylamino)cyclobutyl)-6-boronohexanoic acid dihydrochloride] |  |  | 0.1 to 250 nM | 0.1 to 250 nM |
| NC(CCCCB(O)O)(CCOc1ccc(Cl)cc1)C(=O)O (stereo not drawn) [compound 92, 2-amino-6-borono-2-(2-(4-chlorophenoxy)ethyl)hexanoic acid hydrochloride] | > 5000 nM | > 5000 nM |  |  |
| CC(C)CN1Cc2ccccc2CC1CCC(N)(CCCCB(O)O)C(=O)O (stereo not drawn) [compound 135, 2-amino-6-borono-2-(2-(2-isobutyl-1,2,3,4-tetrahydroisoquinolin-3-yl)ethyl)hexanoic acid dihydrochloride] | 251 to 1000 nM | 0.1 to 250 nM |  |  |
| NC(CCCCB(O)O)(C(=O)O)C1CCN(Cc2ccc(Oc3ccc(Cl)c(Cl)c3)cc2)CC1 (stereo not drawn) [Example 64-A, 2-amino-6-borono-2-(1-(4-(3,4-dichlorophenoxy)benzyl)piperidin-4-yl)hexanoic acid dihydrochloride] |  |  | 0.1 to 250 nM | 0.1 to 250 nM |
| NC(CCCCB(O)O)(C(=O)O)C1CCN(CCCc2ccccc2)CC1 (stereo not drawn) [Example 102-A, 2-amino-6-borono-2-(1-(3-phenylpropyl)piperidin-4-yl)hexanoic acid dihydrochloride] |  |  | 0.1 to 250 nM | 0.1 to 250 nM |
| NC(CCCCB(O)O)(C(=O)O)C1CCN(Cc2ccc3c(c2)OCO3)CC1 (stereo not drawn) [Example 90-A, 2-amino-2-(1-(benzo[d][1,3]dioxol-5-ylmethyl)piperidin-4-yl)-6-boronohexanoic acid dihydrochloride] |  |  | 0.1 to 250 nM | 0.1 to 250 nM |
| NC(CCCCB(O)O)(Cc1cnc[nH]1)C(=O)O (stereo not drawn) [compound 102, 2-((1H-imidazol-5-yl)methyl)-2-amino-6-boronohexanoic acid dihydrochloride] | 2000 to 5000 nM | 2000 to 5000 nM |  |  |
| NC(CCCCB(O)O)(C(=O)O)C1CCN(Cc2ccccc2-c2ccccc2)CC1 (stereo not drawn) [Example 55-A, 2-amino-2-(1-(biphenyl-2-ylmethyl)piperidin-4-yl)-6-boronohexanoic acid dihydrochloride] |  |  | 0.1 to 250 nM | 0.1 to 250 nM |
| NC(CCCCB(O)O)(C(=O)O)C1CCN(Cc2ccc(C(F)(F)F)cc2)CC1 (stereo not drawn) [Example 93-A, 2-amino-6-borono-2-(1-(4-(trifluoromethyl)benzyl)piperidin-4-yl)hexanoic acid] |  |  | 251 to 1000 nM | 251 to 1000 nM |
| N[C@](CCCCB(O)O)(CCN1CCC(O)CC1)C(=O)O [compound 4, (R)-2-amino-6-borono-2-(2-(4-hydroxypiperidin-1-yl)ethyl)hexanoic acid dihydrochloride] | 251 to 1000 nM | 251 to 1000 nM |  |  |
| CNC(CCCCB(O)O)(CC[C@@H]1CCCN1)C(=O)O (stereo partly drawn) [compound 144, 6-borono-2-(methylamino)-2-(2-((S)-pyrrolidin-2-yl)ethyl)hexanoic acid dihydrochloride] | 0.1 to 250 nM | 0.1 to 250 nM |  |  |
| NC(CCCCB(O)O)(CC1CN(CCc2ccc(Cl)cc2Cl)C1)C(=O)O (stereo not drawn) [compound 118, 2-amino-6-borono-2-((1-(2,4-dichlorophenethyl)azetidin-3-yl)methyl)hexanoic acid dihydrochloride] | 251 to 1000 nM | 251 to 1000 nM |  |  |
